The test system of one data set is HepG2 cells. The data set is described as follows: HepG2 cytotoxicity. The data set is classed as cell-based, human. The following applies: Homo sapiens, HepG2, 72 h, 3 days exposure, CellTiter-Glo. The procedure:
HepG2 cells were used to measure eukaryotic cytotoxicity. Viability of HepG2 was measured using CellTiter-Glo reagent (Promega) after 3 days of exposure to compounds. […] Staurosporine controls (maximum inhibition) and a staurosporine dose response were included on every plate.
(In ATP-based viability assays light output follows the ATP content of the culture.)

The next data set deals with RAW 264.7 macrophages. Nature of the data set: Cytotoxicity against infected macrophages. The data set is classed as cell-based, murine. The following applies: Mus musculus; infected RAW264:7 cells, 72 h; read-out: IC50 Macrophage.
The nature of data set [1]: Microsomal metabolic stability. The note with it: human; for half-life at 1 µM: liver microsomes.
Another data set deals with T1, CYP2B6 (Homo sapiens, UniProt P20813).
T1 sequence (P20813 1-491): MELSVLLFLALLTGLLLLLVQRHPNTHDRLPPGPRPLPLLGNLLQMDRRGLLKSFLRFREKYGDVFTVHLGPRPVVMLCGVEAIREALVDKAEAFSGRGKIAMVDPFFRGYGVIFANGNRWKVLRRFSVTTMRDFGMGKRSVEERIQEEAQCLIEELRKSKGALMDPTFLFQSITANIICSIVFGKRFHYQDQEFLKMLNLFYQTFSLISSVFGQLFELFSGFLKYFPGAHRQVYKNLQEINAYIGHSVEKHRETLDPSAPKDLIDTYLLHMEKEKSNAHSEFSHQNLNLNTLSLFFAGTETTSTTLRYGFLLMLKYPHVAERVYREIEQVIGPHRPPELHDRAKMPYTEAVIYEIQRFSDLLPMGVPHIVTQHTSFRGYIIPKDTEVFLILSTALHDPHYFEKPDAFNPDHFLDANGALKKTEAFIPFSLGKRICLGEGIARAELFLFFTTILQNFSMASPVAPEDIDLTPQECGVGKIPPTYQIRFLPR
Nature of the data set: Cytochrome P450 inhibition. The procedure: (§1) Table S4. Inhibition of cytochrome P450s.
(§2) Compounds were tested for inhibition of P450s using the enzyme substrate pairs and conditions noted. IC50s (µM) were calculated. Control P450 inhibitors were included for each isoform.
(§3) For each compound, the analytical method was developed as follows. Analyte signal was optimized for each compound by ESI positive or negative ionization mode. An MS2 scan or an SIM scan was used to optimize fragmenter voltage and a product ion analysis was used to identify the best fragment for analysis. The collision energy was optimized using a product ion or MRM scan. An ionization ranking was assigned indicating the compound’s ease of ionization. Samples […]
(§4) 1200 HPLC and a CTC PAL chilled autosampler, all controlled by MassHunter software (Agilent).
(§5) After separation on a C18 reverse phase HPLC column (Agilent Zorbax StableBond 3.5µm, 2.1 x 30 mm) using an acetonitrile -water gradient system, peaks were analyzed by mass spectrometry (MS) using ESI ionization in MRM mode.
(§6) (1 picture or pasted object on this page, not shown here)
(§7) Serial dilutions of a 10 mM stock solution were prepared in acetonitrile:DMSO (9:1). The final DMSO concentration was < 0.2%. Compounds were incubated with human liver microsomes in the presence of 2 mM NADPH in 100 mM potassium phosphate (pH 7.4) containing 5 mM magnesium chloride and a probe substrate, in a 200 µl assay final volume in duplicate. The probe substrate concentrations including bupropion (CYP2B6), amodiaquine (CYP2C8), tolbutamide (CYP2C9), mephenytoin (CYP2C19), dextromethorphan (CYP2D6) and midazolam/testosterone […]
(§8) After incubation at 37 °C, reactions were terminated by addition of methanol containing internal standard (propranolol) for analytical quantification. The quenched samples were kept on ice for 10 min and centrifuged at 4 °C for 10 min. The supernatant was removed and the probe substrate metabolite was analyzed by LC-MS/MS (Agilent Technologies Triple Quad LC/MS). A decrease in the formation of the metabolite compared to vehicle control

In a further data set the target is CYP2C19 (Homo sapiens, UniProt P33261). The data set is described as follows: biochemical. The procedure:
as §1, §2, §3, §4, §5, §6, §7, §8

The next data set has as its target T2, CYP2C8 (Homo sapiens, UniProt P10632).
T2 sequence (P10632 1-490): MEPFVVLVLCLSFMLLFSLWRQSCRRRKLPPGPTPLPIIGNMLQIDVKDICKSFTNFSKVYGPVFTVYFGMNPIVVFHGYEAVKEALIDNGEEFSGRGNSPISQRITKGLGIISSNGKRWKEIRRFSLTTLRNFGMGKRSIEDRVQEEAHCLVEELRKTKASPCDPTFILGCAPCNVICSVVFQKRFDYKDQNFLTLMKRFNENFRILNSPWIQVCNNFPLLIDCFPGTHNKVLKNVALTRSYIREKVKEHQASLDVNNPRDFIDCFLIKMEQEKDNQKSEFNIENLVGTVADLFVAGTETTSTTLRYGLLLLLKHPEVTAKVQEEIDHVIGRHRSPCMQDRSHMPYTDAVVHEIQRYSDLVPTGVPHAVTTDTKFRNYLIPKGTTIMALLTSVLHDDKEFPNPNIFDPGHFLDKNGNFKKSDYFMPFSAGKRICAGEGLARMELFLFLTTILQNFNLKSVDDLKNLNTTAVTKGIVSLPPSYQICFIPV
Nature of the data set: biochemical. The procedure:
as §1, §2, §3, §4, §5, §6, §7, §8

The next data set addresses CYP2C9 (Homo sapiens, UniProt P11712). Nature of the data set: biochemical. The procedure:
as §1
(§9) Compounds were tested for inhibition of P450s using the enzyme substrate pairs and conditions noted. IC50s (µM) were calculated. Control P450 inhibitors were included for each isoform. […]
as §7, §8

A further data set has as its target CYP2D6 (Homo sapiens, UniProt P10635). The data set is described as follows: biochemical. The procedure:
as §1, §9, §4, §5, §7, §8

Another data set has as its target CYP3A4 (Homo sapiens, UniProt P08684). Nature of the data set: Cytochrome P450 inhibition. It counts as in vitro ADME. The note with it: liver microsomes. The procedure:
as §1, §2, §3, §4, §5, §6, §7, §8
Background: Liver microsomes are vesicles of endoplasmic reticulum, rich in cytochrome P450 enzymes.

The IC50 is the point on the concentration scale where inhibition reaches its midpoint. Broadly, the half-life is the time needed for the level to fall by half in the phase considered. The low end stands for rapid decline, the high end for slow decline. The term microsomal CLint denotes the capacity of the preparation to metabolise the compound, expressed as a volume cleared per time. One may read the amount remaining as what is left of the initial amount, in per cent.

Sequence of CYP3A4 (P08684 2-503): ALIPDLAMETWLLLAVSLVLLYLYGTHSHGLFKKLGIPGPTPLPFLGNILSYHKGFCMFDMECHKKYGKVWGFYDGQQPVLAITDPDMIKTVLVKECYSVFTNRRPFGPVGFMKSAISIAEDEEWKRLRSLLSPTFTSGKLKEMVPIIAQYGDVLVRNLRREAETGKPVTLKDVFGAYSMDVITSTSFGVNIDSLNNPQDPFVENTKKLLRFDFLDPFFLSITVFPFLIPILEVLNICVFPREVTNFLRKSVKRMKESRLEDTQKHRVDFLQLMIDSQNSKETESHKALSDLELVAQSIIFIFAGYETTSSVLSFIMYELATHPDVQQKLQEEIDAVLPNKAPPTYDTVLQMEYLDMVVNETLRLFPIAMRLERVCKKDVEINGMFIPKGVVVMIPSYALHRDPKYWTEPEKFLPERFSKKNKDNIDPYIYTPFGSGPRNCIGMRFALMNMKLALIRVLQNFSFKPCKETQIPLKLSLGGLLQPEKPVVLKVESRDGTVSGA
Sequence of CYP2C9 (P11712 whole entry): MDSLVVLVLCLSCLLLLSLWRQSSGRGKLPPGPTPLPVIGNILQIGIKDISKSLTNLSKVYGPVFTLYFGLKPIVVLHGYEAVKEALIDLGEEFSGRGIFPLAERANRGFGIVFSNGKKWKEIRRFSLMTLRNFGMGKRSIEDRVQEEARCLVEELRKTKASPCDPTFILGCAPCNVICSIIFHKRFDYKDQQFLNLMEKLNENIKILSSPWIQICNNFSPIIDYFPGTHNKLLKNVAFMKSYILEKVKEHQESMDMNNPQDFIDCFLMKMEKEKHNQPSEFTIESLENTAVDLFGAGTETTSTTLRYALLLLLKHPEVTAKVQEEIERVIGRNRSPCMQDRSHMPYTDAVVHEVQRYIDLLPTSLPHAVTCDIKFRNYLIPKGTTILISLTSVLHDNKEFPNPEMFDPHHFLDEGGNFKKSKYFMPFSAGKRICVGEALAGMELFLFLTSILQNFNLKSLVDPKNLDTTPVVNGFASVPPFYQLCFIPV
Sequence of CYP2D6 (P10635 whole entry): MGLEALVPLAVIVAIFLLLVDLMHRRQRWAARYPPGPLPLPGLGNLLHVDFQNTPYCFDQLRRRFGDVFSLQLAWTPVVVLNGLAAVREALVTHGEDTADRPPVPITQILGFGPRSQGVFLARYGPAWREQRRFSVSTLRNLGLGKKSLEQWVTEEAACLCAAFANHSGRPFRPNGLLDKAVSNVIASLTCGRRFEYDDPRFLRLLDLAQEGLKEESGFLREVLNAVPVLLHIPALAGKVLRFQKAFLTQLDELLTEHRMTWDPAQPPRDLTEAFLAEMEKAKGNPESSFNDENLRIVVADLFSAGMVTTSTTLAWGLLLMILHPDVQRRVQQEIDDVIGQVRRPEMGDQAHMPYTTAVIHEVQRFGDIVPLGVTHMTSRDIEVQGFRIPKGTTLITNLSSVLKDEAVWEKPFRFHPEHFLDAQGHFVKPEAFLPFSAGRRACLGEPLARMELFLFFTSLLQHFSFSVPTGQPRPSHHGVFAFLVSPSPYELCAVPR
Sequence of CYP2C19 (P33261 whole entry): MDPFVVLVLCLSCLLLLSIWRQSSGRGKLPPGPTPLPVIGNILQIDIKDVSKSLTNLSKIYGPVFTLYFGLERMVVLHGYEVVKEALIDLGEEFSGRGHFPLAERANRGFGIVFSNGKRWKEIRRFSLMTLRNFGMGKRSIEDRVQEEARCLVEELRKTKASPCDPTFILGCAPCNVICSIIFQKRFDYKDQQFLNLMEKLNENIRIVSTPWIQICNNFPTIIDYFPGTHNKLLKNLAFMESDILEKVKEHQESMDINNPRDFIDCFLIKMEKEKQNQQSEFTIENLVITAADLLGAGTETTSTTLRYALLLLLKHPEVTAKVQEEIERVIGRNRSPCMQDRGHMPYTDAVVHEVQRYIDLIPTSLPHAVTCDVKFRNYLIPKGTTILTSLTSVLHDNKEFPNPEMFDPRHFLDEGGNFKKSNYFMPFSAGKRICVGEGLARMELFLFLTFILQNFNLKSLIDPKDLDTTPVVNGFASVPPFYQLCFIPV

As to `CCCCNC(=S)Nc1nc2ccccc2s1` [Molecule 1, 1-(benzo[d]thiazol-2-yl)-3-butylthiourea], the IC50 in the data set on HepG2 cells was 26 ± 12 µM; in the data set with RAW 264.7 macrophages, more than 100 µM; against CYP2B6, more than 20 µM; against CYP2C19 it was 4.6 µM; at CYP2C8, more than 20 µM; against CYP2C9, more than 20 µM. This compound had an IC50 on CYP2D6 of more than 20 µM. This compound gave a half-life at 1 µM in data set [1] (pH 7.4) of 24 min. Moreover, the “Percent remaining %REavg” value in data set [1] (microsomes, 5 min, 1 µM, pH 7.4) is on record as 98.1%. Also, the microsomal CLint at 1 µM in [1] (microsomes, pH 7.4) was 96 µL/min/mg. In [1] (microsomes, pH 7.4, Percent remaining %REavg), this compound had a share remaining at 5 min, 1 µM of 96.6%. Also, the IC50 at 10 min was more than 20 µM against CYP3A4 (pH 7.4, probe midazolam) and more than 20 µM on CYP3A4 (pH 7.4, probe testosterone).
As for `CCCCNC(=S)Nc1nc(C)co1` [Molecule 21, 1-butyl-3-(4-methyloxazol-2-yl)thiourea], the IC50 in the data set with HepG2 cells is 42 ± 12 µM; with RAW 264.7 macrophages it was 6 ± 1 µM; against CYP2B6, more than 20 µM; against CYP2C19, more than 20 µM; against CYP2C8, more than 20 µM; on CYP2C9, more than 20 µM. The compound also registered an IC50 on CYP2D6 of more than 20 µM. In data set [1] (pH 7.4), this compound registered a half-life at 1 µM of 13 min. Also, the microsomal CLint at 1 µM in data set [1] (microsomes, pH 7.4) amounted to 179 µL/min/mg. For the same compound, the IC50 at 10 min at CYP3A4 (pH 7.4, probe midazolam) was more than 20 µM; on CYP3A4 (pH 7.4, probe testosterone), 11.9 µM.

Source of the values: publication PMC9927457 (Microbiology Spectrum, 2023).
